Results taken from patent US6436962B1, “Arylhydantoin derivatives and uses thereof” (Merck & Co., Inc., priority 1999, dated 2002).
Where a name gives a salt, the structure may show the parent alone.

Assays:
[1] = target: T1, human alpha 1a adrenergic receptor (Homo sapiens, UniProt P35348); assay: Screening assay: alpha 1a adrenergic receptor binding ([125I]-HEAT competition); conditions: membranes from stably transfected human alpha 1a cell line (ATCC CRL 11140), 100 pM [125I]-HEAT
T1 sequence (P35348 1-466): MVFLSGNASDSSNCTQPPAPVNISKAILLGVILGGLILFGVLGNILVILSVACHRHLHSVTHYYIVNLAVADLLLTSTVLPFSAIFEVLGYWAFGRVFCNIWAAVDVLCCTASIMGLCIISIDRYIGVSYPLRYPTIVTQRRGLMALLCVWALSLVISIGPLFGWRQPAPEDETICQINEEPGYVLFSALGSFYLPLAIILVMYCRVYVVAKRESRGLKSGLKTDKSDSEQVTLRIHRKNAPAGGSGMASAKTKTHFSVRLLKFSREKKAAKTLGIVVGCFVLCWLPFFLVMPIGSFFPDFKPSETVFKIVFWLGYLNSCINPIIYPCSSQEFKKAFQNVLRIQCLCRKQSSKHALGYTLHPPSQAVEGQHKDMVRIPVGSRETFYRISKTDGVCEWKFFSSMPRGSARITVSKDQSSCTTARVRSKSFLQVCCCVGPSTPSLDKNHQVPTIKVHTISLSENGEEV
Experimental: Screening Assay: Alpha 1a Adrenergic Receptor Binding
These competition binding reactions (total volume=200 μl) contained 50 mM Tris-HCl pH. […] Reactions were incubated at room temperature for one hour with shaking. Reactions were filtered onto Whatman GF/C glass fiber filters with a Inotec 96 well cell harvester. Filters were washed three times with ice cold buffer and bound radioactivity was determined (Ki).

melting point [°C]	Compound	Ki [1] [nM]
160 to 163	Cc1ccc(C2(c3ccc(C)cc3)NC(=O)N(CCCN3CCN(c4ccccc4C(N)=O)CC3)C2=O)cc1 (as salt: hydrochloride) [Compound 25, 3-{3-[4-(2-aminocarbonylphenyl)-piperazin-1-yl]propyl}-5,5-bis(4-methylphenyl)-imidazolin-2,4-dione dihydrochloride]	–
236	Cc1ccc(C2(c3ccc(C)cc3)NC(=O)N(CCCN3CCN(c4ccccc4C#N)CC3)C2=O)cc1 (as salt: hydrochloride) [Compound 27, 3-{3-[4-(2-cyanophenyl)-piperazin-1-yl]propyl}-5,5-bis(4-methylphenyl)-imidazolin-2,4-dione hydrochloride]	–
63 to 65	CCOC(=O)CN1C(=O)N(CCCN2CCC(C#N)(c3ccccc3C)CC2)C(=O)C1(c1ccc(C)cc1)c1ccc(C)cc1 [Compound 35, 1 -Ethoxycarbonylmethyl-3-{3-[4-(2-methylphenyl)-4-cyanopiperidin-1-yl]propyl}bis-5,5-(4-methylphenyl)-imidazolin-2,4-dione]	–
144 to 155	Cc1ccc(C2(c3ccc(C)cc3)NC(=O)N(CCCN3CCC(n4c(=O)[nH]c5cc(Cl)ccc54)CC3)C2=O)cc1 [Compound 34, 3-{3-[4-(5-chloro-2-oxo-1-benzimidazolinyl)piperidin-1-yl]propyl}-5,5-bis(4-methylphenyl)-imidazolin-2,4-dione]	–
201 to 205	Cc1ccc(C2(c3ccc(C)cc3)NC(=O)N(CCCN3CCC4(CC3)Cc3ccccc3C4=O)C2=O)cc1 [Compound 20, 3-{3-(2,3-dihydro-spiro[indeno-2,4′-piperidin]-1(2H)-on-1-yl)propyl}-5,5-bis(4-methylphenyl)-imidazolin-2,4-dione]	< 20

Further lines, the molecule ahead of its results:

Compound	melting point [°C]	Ki [1] [nM]
Cc1ccc(C2(c3ccc(C)cc3)NC(=O)N(CCCCN3CCC4(CC3)C(=O)Cc3ccccc34)C2=O)cc1 [Compound 19, 3-{4-(2,3-dihydro-spiro[indeno-1,4′-piperidin]-2(3H)-on-1′-yl)butyl}-5,5-bis(4-methylphenyl)-imidazolin-2,4-dione]	76 to 88	< 20
Cc1ccc(C2(c3ccc(C)cc3)NC(=O)N(CCCN3CCC4(CCc5ccccc54)CC3)C2=O)cc1 [Compound 18, 3-{3-(2,3-dihydro-spiro[indeno-1,4′-piperidin]-1′yl)propyl}-5,5-bis(4-methylphenyl)-imidazolin-2,4-dione]	170 to 172	< 20
CC1(c2ccccc2)NC(=O)N(CCCN2CCC(C#N)(c3ccccc3)CC2)C1=O (racemic) (as salt: hydrochloride)	222 to 223	–
Cc1ccc(C2(c3ccc(C)cc3)NC(=O)N(CCCN3CCC(C#N)(c4ccccc4C)CC3)C2=O)cc1 [Compound 2, 3-{3-[4-(2-Methylphenyl)-4-cyanopiperidin-1-yl]propyl}-5,5-bis(4-methylphenyl)-imidazolin-2,4-dione]	164 to 165	< 20
COCN1C(=O)N(CCCN2CCC(C#N)(c3ccccc3C)CC2)C(=O)C1(c1ccc(C)cc1)c1ccc(C)cc1	53 to 55	–
Cc1ccc(C2(c3ccc(C)cc3)NC(=O)N(CCCN3CCC4(CC3)C(=O)Nc3ccccc34)C2=O)cc1 (as salt: hydrochloride) [Compound 21, 3-{3-(spiro[3H-indole-3,4′-piperidin]-2(1H)-on-1′-yl)propyl}-5,5-bis(4-methylphenyl)-imidazolin-2,4-dione hydrochloride]	> 210	–
Cc1ccc(C2(c3ccc(C)cc3)NC(=O)N(CCCN3CCC4(CC3)C(=O)N(C)c3ccccc34)C2=O)cc1 [Compound 22, 3-{3-(1-methyl-spiro[3H-indole-3,4′piperidin]-2(1H)-on-1′-yl)propyl}-5,5-bis(4-methylphenyl)-imidazolin-2,4-dione]	127 to 135	< 20
COC(=O)C1CN(CCCN2C(=O)NC(c3ccc(C)cc3)(c3ccc(C)cc3)C2=O)CCC1Nc1ccccc1Cl.Cl (racemic)	160 to 163	–
N#CC1(c2ccccc2)CCN(CCCN2C(=O)NC(c3ccccc3)(c3ccccc3)C2=O)CC1 [Compound 15, 3-[3-(4-phenyl-4-cyanopiperidin-1-yl)propyl]-5,5-bis(phenyl)-imidazolin-2,4-dione]	161 to 163	< 20
